15 compounds from PubChem BioAssay AID256 (DTP/NCI, 2004) can be followed below.

The subject of the test is CD2F1 mice, L1210 leukemia ip, survival T/C. Description: NCI In Vivo Anticancer Drug Screen. Data for tumor model L1210 Leukemia (intraperitoneal) in CD2F1 (CDF1) mice. Conditions: higher = longer survival. A digest of the protocol:
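Compound-dosed mice with transplantable tumor versus matched vehicle controls; endpoint ratio T/C reported.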

The mark [1] stands for this setting: endpoint: mean survival time, dose: 100.0 mg/kg/injection, schedule: Q01DX009 (ip), vehicle: saline with Tween-80.
The mark [2] stands for this setting: endpoint: mean survival time, dose: 100.0 mg/kg/injection, schedule: Q04DX003 (ip), vehicle: saline with Tween-80.
Setting [3] is: endpoint: mean survival time, dose: 200.0 mg/kg/injection, schedule: Q01DX009 (ip), vehicle: saline with Tween-80.
Setting [4] is: endpoint: mean survival time, dose: 200.0 mg/kg/injection, schedule: Q04DX003 (ip), vehicle: saline with Tween-80.
Setting [5] is: endpoint: mean survival time, dose: 400.0 mg/kg/injection, schedule: Q01DX009 (ip), vehicle: saline with Tween-80.
Where [6] appears, read: endpoint: mean survival time, dose: 400.0 mg/kg/injection, schedule: Q04DX003 (ip), vehicle: saline with Tween-80.

Where “and” joins values, the source holds several entries; their conditions need not be identical. Equal entries are not always repeated. Toxic doses and inconclusive results are not listed.

As to `O=C(Oc1ccccc1)c1cc(O)c(O)c(O)c1`, the T/C by setting is: (endpoint: median survival time, dose: 25.0 mg/kg/injection, schedule: Q01DX009 (ip), vehicle: saline with Tween-80) 101 % of control; (endpoint: median survival time, dose: 50.0 mg/kg/injection, schedule: Q01DX009 (ip), vehicle: saline with Tween-80) 98 % of control; (endpoint: median survival time, dose: 100.0 mg/kg/injection, schedule: Q01DX009 (ip), vehicle: saline with Tween-80) 105 % of control; (endpoint: median survival time, dose: 200.0 mg/kg/injection, schedule: Q01DX009 (ip), vehicle: saline with Tween-80) 112 % of control.

Turning to `Nc1ncnc2c1nc([Se])n2C1OC(CO)C(O)C1O` (configuration not stated), the T/C was 100 % of control (endpoint: mean survival time, dose: 12.5 mg/kg/injection, schedule: Q01DX005 (ip), vehicle: water); 97 % of control (endpoint: mean survival time, dose: 25.0 mg/kg/injection, schedule: Q01DX005 (ip), vehicle: water); 100 % of control (endpoint: mean survival time, dose: 50.0 mg/kg/injection, schedule: Q01DX005 (ip), vehicle: water); 95 % of control (endpoint: mean survival time, dose: 100.0 mg/kg/injection, schedule: Q01DX005 (ip), vehicle: water); 90 % of control (endpoint: mean survival time, dose: 200.0 mg/kg/injection, schedule: Q01DX005 (ip), vehicle: water).

For the compound `NCC1OC(OC2C(N)CC(N)C(O)C2OC2OC(CO)C(O)C2O)C(N)C(O)C1O` (configuration not stated), the T/C was 96 % of control (endpoint: mean survival time, dose: 75.0 mg/kg/injection, schedule: Q04DX003 (ip), vehicle: saline); 102 % of control (endpoint: mean survival time, dose: 150.0 mg/kg/injection, schedule: Q04DX003 (ip), vehicle: saline); 100 % of control (endpoint: mean survival time, dose: 300.0 mg/kg/injection, schedule: Q04DX003 (ip), vehicle: saline).

Turning to `O=C(O)C(=O)O.[NH-]C1CCCC1[NH-].[Pt+2]` (configuration not stated), the T/C by setting is: (endpoint: mean survival time, dose: 1.25 mg/kg/injection, schedule: Q04DX003 (ip), vehicle: other) 104 % of control; (endpoint: mean survival time, dose: 2.5 mg/kg/injection, schedule: Q04DX003 (ip), vehicle: other) 114 % of control; (endpoint: mean survival time, dose: 5.0 mg/kg/injection, schedule: Q04DX003 (ip), vehicle: other) 115 % of control; (endpoint: mean survival time, dose: 10.0 mg/kg/injection, schedule: Q04DX003 (ip), vehicle: other) 106 % of control.

For the compound `CC(C)OC(=O)c1cc([N+](=O)[O-])c(Sc2ncnc3nc[nH]c23)c([N+](=O)[O-])c1`, the T/C is 109 % of control (endpoint: mean survival time, dose: 0.63 mg/kg/injection, schedule: Q01DX005 (ip), vehicle: other); 119 % of control (endpoint: mean survival time, dose: 1.25 mg/kg/injection, schedule: Q01DX005 (ip), vehicle: other); 114 % of control (endpoint: mean survival time, dose: 2.5 mg/kg/injection, schedule: Q01DX005 (ip), vehicle: other); 124 % of control (endpoint: mean survival time, dose: 5.0 mg/kg/injection, schedule: Q01DX005 (ip), vehicle: other); 115 % of control (endpoint: mean survival time, dose: 9.9 mg/kg/injection, schedule: Q01DX005 (ip), vehicle: other); 157 % of control (endpoint: mean survival time, dose: 25.0 mg/kg/injection, schedule: Q01DX005 (ip), vehicle: other). Also, the T/C was 158 % of control (endpoint: mean survival time, dose: 33.3 mg/kg/injection, schedule: Q01DX005 (ip), vehicle: other); 151 % of control and 178 % of control and 184 % of control (endpoint: mean survival time, dose: 50.0 mg/kg/injection, schedule: Q01DX005 (ip), vehicle: other); 89 % of control (endpoint: mean survival time, dose: 100.0 mg/kg/injection, schedule: Q01DX005 (ip), vehicle: other).

Consider `O=C(Nc1ccc(Cl)c(C(F)(F)F)c1)Nc1cc(C(F)(F)F)ccc1Sc1cc(Cl)c(Cl)cc1S(=O)(=O)O`, for which, under setting [1], the T/C is 101 % of control.

As for `CCN(C(=O)Nc1ccccc1)c1ccccc1`, the T/C (endpoint: mean survival time, dose: 75.0 mg/kg/injection, schedule: Q04DX003 (ip), vehicle: saline with Tween-80) is 98 % of control; the T/C (endpoint: mean survival time, dose: 150.0 mg/kg/injection, schedule: Q04DX003 (ip), vehicle: saline with Tween-80) is 98 % of control; the T/C (endpoint: mean survival time, dose: 300.0 mg/kg/injection, schedule: Q04DX003 (ip), vehicle: saline with Tween-80) was 106 % of control.

For the compound `CC(=O)Nc1cccc(Cl)c1`, the T/C reads like this: (endpoint: mean survival time, dose: 100.0 mg/kg/injection, schedule: Q01DX001 (ip), vehicle: saline with Tween-80) 92 % of control; under setting [1], 106 % of control; under setting [2], 98 % of control and 103 % of control; (endpoint: mean survival time, dose: 200.0 mg/kg/injection, schedule: Q01DX001 (ip), vehicle: saline with Tween-80) 100 % of control; under setting [3], 96 % of control; under setting [4], 98 % of control and 116 % of control. The T/C is, setting by setting: (endpoint: mean survival time, dose: 400.0 mg/kg/injection, schedule: Q01DX001 (ip), vehicle: saline with Tween-80) 94 % of control; under setting [5], 91 % of control; under setting [6], 94 % of control and 109 % of control.

With `Cc1nc2c(N)cc(Cl)cc2[nH]1`, the T/C reads like this: (endpoint: median survival time, dose: 25.0 mg/kg/injection, schedule: Q01DX005 (ip), vehicle: saline with Tween-80) 101 % of control; (endpoint: median survival time, dose: 50.0 mg/kg/injection, schedule: Q01DX005 (ip), vehicle: saline with Tween-80) 101 % of control; (endpoint: median survival time, dose: 100.0 mg/kg/injection, schedule: Q01DX005 (ip), vehicle: saline with Tween-80) 103 % of control.

For `O=C(CCl)N1CCC(CC2(c3cc4ccccc4[nH]3)OCCO2)CC1`, the T/C by setting is: (endpoint: mean survival time, dose: 50.0 mg/kg/injection, schedule: Q04DX002 (ip), vehicle: other) 106 % of control; (endpoint: mean survival time, dose: 100.0 mg/kg/injection, schedule: Q04DX002 (ip), vehicle: other) 109 % of control; (endpoint: mean survival time, dose: 200.0 mg/kg/injection, schedule: Q04DX002 (ip), vehicle: other) 91 % of control.

As to `CSC(=S)N(C)N`, the T/C by setting is: under setting [1], 104 % of control; under setting [2], 102 % of control; under setting [3], 103 % of control; under setting [4], 100 % of control; under setting [5], 104 % of control; under setting [6], 102 % of control.

For the compound `c1ccc([I+]c2ccccc2)cc1`, the T/C is 98 % of control (endpoint: mean survival time, dose: 0.65 mg/kg/injection, schedule: Q01DX009 (ip), vehicle: saline with Tween-80); 98 % of control (endpoint: mean survival time, dose: 1.3 mg/kg/injection, schedule: Q01DX009 (ip), vehicle: saline with Tween-80); 103 % of control (endpoint: mean survival time, dose: 2.5 mg/kg/injection, schedule: Q01DX009 (ip), vehicle: saline sonified); 98 % of control (endpoint: mean survival time, dose: 2.5 mg/kg/injection, schedule: Q01DX009 (ip), vehicle: saline with Tween-80); 95 % of control (endpoint: mean survival time, dose: 2.5 mg/kg/injection, schedule: Q04DX003 (ip), vehicle: saline with Tween-80); 94 % of control (endpoint: mean survival time, dose: 5.0 mg/kg/injection, schedule: Q01DX009 (ip), vehicle: saline sonified). For the same compound, the T/C is 104 % of control (endpoint: mean survival time, dose: 5.0 mg/kg/injection, schedule: Q04DX003 (ip), vehicle: saline with Tween-80); 98 % of control (endpoint: mean survival time, dose: 5.0 mg/kg/injection, schedule: Q04DX003 (ip), vehicle: saline); 103 % of control (endpoint: mean survival time, dose: 10.0 mg/kg/injection, schedule: Q04DX003 (ip), vehicle: saline with Tween-80); 97 % of control (endpoint: mean survival time, dose: 10.0 mg/kg/injection, schedule: Q04DX003 (ip), vehicle: saline); 115 % of control (endpoint: mean survival time, dose: 20.0 mg/kg/injection, schedule: Q04DX003 (ip), vehicle: saline).

As to `CC(C)CCCC(C)C1CCC2C3CCC4CC(=O)C=CC4(C)C3CCC12C` (configuration not stated), the T/C runs as follows: (endpoint: mean survival time, dose: 75.0 mg/kg/injection, schedule: Q04DX003 (sc), vehicle: steriod suspending solution) 100 % of control; (endpoint: mean survival time, dose: 150.0 mg/kg/injection, schedule: Q04DX003 (sc), vehicle: steriod suspending solution) 101 % of control; (endpoint: mean survival time, dose: 300.0 mg/kg/injection, schedule: Q04DX003 (sc), vehicle: steriod suspending solution) 101 % of control.

Turning to `CCCCC(Sc1n[nH]c(=O)[nH]c1=O)C(=O)OCC` (configuration not stated), the T/C is 96 % of control (endpoint: mean survival time, dose: 12.5 mg/kg/injection, schedule: Q01DX005 (ip), vehicle: distilled water + Tween-80); 100 % of control (endpoint: mean survival time, dose: 25.0 mg/kg/injection, schedule: Q01DX005 (ip), vehicle: distilled water + Tween-80); 96 % of control (endpoint: mean survival time, dose: 50.0 mg/kg/injection, schedule: Q01DX005 (ip), vehicle: distilled water + Tween-80); 103 % of control (endpoint: mean survival time, dose: 100.0 mg/kg/injection, schedule: Q01DX005 (ip), vehicle: distilled water + Tween-80); 97 % of control (endpoint: mean survival time, dose: 200.0 mg/kg/injection, schedule: Q01DX005 (ip), vehicle: distilled water + Tween-80).

On to `COc1cc2c(c3c1c(=O)c1cccc(F)c1n3C)C=CC(C)(C)O2`, for which the T/C runs as follows: (endpoint: median survival time, dose: 50.0 mg/kg/injection, schedule: Q01DX009 (ip), vehicle: Klucel (hydroxypropylcellulose) (HPC)) 118 % of control; (endpoint: median survival time, dose: 100.0 mg/kg/injection, schedule: Q01DX009 (ip), vehicle: Klucel (hydroxypropylcellulose) (HPC)) 117 % of control; (endpoint: median survival time, dose: 200.0 mg/kg/injection, schedule: Q01DX009 (ip), vehicle: Klucel (hydroxypropylcellulose) (HPC)) 120 % of control and 90 % of control.
